Reference: paper PMC7170299, “Design, synthesis, molecular modelling and biological evaluation of novel 3-(2-naphthyl)-1-phenyl-1H-pyrazole derivatives as potent antioxidants and 15-Lipoxygenase inhibitors” (Journal of Enzyme Inhibition and Medicinal Chemistry, 2020)

What was measured:
[1] = Superoxide scavenging assay (pyrogallol autoxidation); conditions: for Superoxide scavenging potency relative to ascorbic acid: folds of ascorbic acid; for Superoxide IC50: mean ± SEM of three experiments, pyrogallol autoxidation, 325 nm
Method: The improved pyrogallol autoxidation method was used to determine O2^−. RSA of all synthesized compounds as previously described. Briefly, 50 µL of test compounds (12.5, 25, 50,100, and 200 µg/mL) was added to 2900 µl of […] Tris HCl buffer (0.05 M, pH 7.4) containing 1-mM Na2EDTA. Next, 50 µL of 60-mM pyrogallol in1mM HCl had been thoroughly mixed with the mixture. The absorbance of the reaction mixture was measured at A325 nm every 30 s for 5 min. O2^− RSA was expressed by the oxidation degree of a test group in comparison to that of the control. The absorbance at 325 nm was measured against the Tris-HCl buffer every 30 s for 5 min. The percentage of scavenging effect was calculated using the following equation: O2^− radical scavenging %=[(ΔA325, control/T)−(ΔA325nm, sample/T)/ΔA325nm, control/T]×100 where ΔA325 nm, control is the increase in A325 nm of the reaction mixture without the sample and ΔA325 nm, sample is that for the mixture with the sample; T=5 min. The experiments were performed in triplicate.

[2] = DPPH radical scavenging assay; conditions: mean ± SEM of three experiments; 30 min, 517 nm
Method: The DPPH scavenging activity of all synthesized compounds was measured as previously described by Nahar et al.[48] with some modifications. Briefly, 100 µL of different concentrations of the tested compounds (12.5, 25, 50, 100, and 200 µg/mL) were pipetted into a 96-well plate. Then, 100 µL of 100-µM DPPH methanolic solution were added to each well and the plate was incubated protected from light at room temperature for 30 min. The absorbance of the solution was measured at λ517 nm.[49] Ascorbic acid was used as the positive control while DMSO was the negative control. The percentage of DPPH scavenging activity was calculated according to the following equation: % of DPPH scavenging=[(Acontrol–Asample)/Acontrol] ×100, where Acontrol is the absorbance of the control reaction (with all reagents except the test compound), and Asample is the absorbance of the test sample. […] All tests were performed in triplicates.

[3] = system: lipid peroxidation (MDA) in liver; assay: In vivo lipid peroxide level (TBARS/MDA) in liver homogenate; set-up: species or system male Wistar albino rats; conditions: rat liver; 100 mg/kg orally for 3 days; mean ± SEM, n = 6
Method: The complete progress of the experiment was conducted using male Wistar albino rats (200–250 g), delivered by the Institutional Breeding House, Egypt, reared and maintained in the animal house of the institution. The animals had free access to food and water ad libitum and maintained in a controlled environment under standard conditions of temperature and humidity with an alternating 12 h light and dark cycle for about a week for acclimatization. The protocol of the study was approved by the Animal Ethics Committee of the Faculty of Pharmacy, Helwan University (ethical code number: 05A2019; date: October 2019). The study was conducted in accordance with the EC, directive 86/609/EEC for animal experiments.
Rats are weighed at the beginning and at the end of experiment. Fifty-four male albino rats (n=6) were divided into nine different groups. Group I served as a control group and treated with the same volume vehicle only. Group II treated with 100 mg/kg of Ascorbic acid as standard antioxidant drug. Groups (III–IX) orally administered 100 mg/kg of compounds 3a, 4e, 5b, 5c, 6a, 6c, 6e, respectively, for 3 days. The animals were sacrificed by cervical dislocation 24 h after the last dose. Sacrificing is carried out at the same time of the day, to avoid the circadian variation in the level of tissue GSH[53]. Each liver was excised, weighed, rinsed in ice-cold normal saline and frozen for not more than 72 h await analysis of endogenous antioxidant status (GSH levels and CAT activity) and lipid peroxide concentrations. For performing biochemical assays, a 10% liver homogenate in 10 mM phosphate buffer was prepared using tissue homogeniser (Glas-Col®, Cat no.099C K6424, TERRE HAUTE, USA).
Lipid peroxidation level in the liver homogenates was determined as thiobarbituric acid reactive substances (TBARS) by measuring malondialdehyde ‘MDA’ level according to Mihara and Uchiyama[56]. Briefly, 0.5 mL supernatant of tissue homogenate was mixed with 0.6% thiobarbituric acid (TBA) and 1% orthophosphoric acid solution, and heated in a boiling water bath for 45 min. The pink-coloured chromogen formed by the reaction of TBA with MDA was extracted by n-butanol and measured at 535 nm. The results were expressed as nmol/g tissue.

| SMILES | DPPH IC50 [2] [µg/mL] | Superoxide scavenging potency relative to ascorbic acid [1] [folds] | Superoxide IC50 [1] [µg/mL] | TBARS [3] [nmol/g tissue] |
| --- | --- | --- | --- | --- |
| c1ccc(C2=NNC(c3cn(-c4ccccc4)nc3-c3ccc4ccccc4c3)C2)cc1 (centres unmarked) [Compound 3a, 3′-Naphthalen-2-yl-5,1′-diphenyl-3,4-dihydro-2H,1’H-[3,4′]bipyrazole] | 13.99 ± 0.78 | 2.5 | 50.42 ± 1.45 | 0.350 ± 0.05 |
| Clc1ccc(C2=NN(c3ccccc3)C(c3cn(-c4ccccc4)nc3-c3ccc4ccccc4c3)C2)cc1Cl (centres unmarked) [Compound 4e, 5-(3,4-Dichlorophenyl)-3′-naphthalen-2-yl-2,1′-diphenyl-3,4-dihydro-2H,1’H-[3,4′]-bipyrazole] | 19.56 ± 1.06 | – | 130.19 ± 1.1 | 0.402 ± 0.04 |
| COc1ccc(C2=NOC(c3cn(-c4ccccc4)nc3-c3ccc4ccccc4c3)C2)cc1 (centres unmarked) [Compound 5b, 3-(4-Methoxyphenyl)-5-(3-naphthalen-2-yl-1-phenyl-1H-pyrazol-4-yl)-4,5-dihydro isoxazole] | 46.62 ± 1.63 | – | 101.8 ± 1.39 | 0.330 ± 0.02 |
| Cc1ccc(C2=NOC(c3cn(-c4ccccc4)nc3-c3ccc4ccccc4c3)C2)cc1 (centres unmarked) [Compound 5c, 5-(3-Naphthalen-2-yl-1-phenyl-1H-pyrazol-4-yl)-3-p-tolyl-4,5-dihydroisoxazole] | 47.27 ± 1.13 | 2.8 | 44.54 ± 1.44 | 0.346 ± 0.01 |

Continued, in another order:

| DPPH IC50 [2] [µg/mL] | SMILES | Superoxide scavenging potency relative to ascorbic acid [1] [folds] | Superoxide IC50 [1] [µg/mL] | TBARS [3] [nmol/g tissue] |
| --- | --- | --- | --- | --- |
| 20.47 ± 1.43 | NC(=S)N1N=C(c2ccccc2)CC1c1cn(-c2ccccc2)nc1-c1ccc2ccccc2c1 (centres unmarked) [Compound 6a, 3′-Naphthalen-2-yl-5,1′-diphenyl-3,4-dihydro-1’H-[3,4′]bipyrazolyl-2-carbothioic acid amide] | – | 127.25 ± 1.47 | 0.348 ± 0.03 |
| 18.98 ± 1.73 | Cc1ccc(C2=NN(C(N)=S)C(c3cn(-c4ccccc4)nc3-c3ccc4ccccc4c3)C2)cc1 (centres unmarked) [Compound 6c, 3′-Naphthalen-2-yl-1′-phenyl-5-p-tolyl-3,4-dihydro-1’H-[3,4′]bipyrazolyl-2-carbo thioic acid amide] | – | 140.17 ± 1.52 | 0.428 ± 0.02 |
| 9.66 ± 0.34 | NC(=S)N1N=C(c2ccc(Cl)c(Cl)c2)CC1c1cn(-c2ccccc2)nc1-c1ccc2ccccc2c1 (centres unmarked) [Compound 6e] | – | 87.31 ± 1.58 | 0.344 ± 0.05 |
